Measurements published in patent US20230035586A1, “Salts of R-ketorolac” (Revere Pharmaceuticals, Inc., priority 2019, published 2023).

Legend:
[1] = Dynamic Vapor Sorption (DVS) moisture sorption/desorption; assay type: physicochemical; settings: for weight gain from 5-75% RH / weight gain from 5-75% RH, moles of H2O / weight gain above 75% RH / weight gain above 75% RH, moles of H2O: DVS sorption; for weight gain above 75% RH / weight gain above 75% RH, moles of H2O: above 75% RH (up to 95% RH); for form change after DVS, based on XRPD: XRPD of post-DVS solids
Procedure: DVS analysis (FIG. 5) was conducted by first equilibrating at ambient RH, and then dropping to 5% RH. It was then increased to 95% RH and cycled back to 5% RH. The sample was held at 5% RH until XRPD analysis. Upon equilibration from ambient RH (-48%) to 5% RH, the sample loses 0.4 wt %, equivalent to ˜0.1 moles of H2O. From 5-75% RH, the material undergoes a 1.2 wt % gain (˜0.25 moles of H2O). Above 75% RH, the material gains ˜12 wt % (˜3 moles of H2O).
The crystalline salt of R-ketorolac and meglumine was analyzed by DVS (FIG. 10). […] Upon equilibration from ambient RH (˜50%) to 5% RH, the sample loses 0.1 wt %, equivalent to <0.1 mole of H2O. From 5-75% RH, the material undergoes a 0.9 wt % gain (˜0.25 moles of H2O). Above 75% RH, the material gains ˜37 wt % (>12 moles of H2O). Upon desorption to 5% RH, which occurs with hysteresis, the sample retains ˜9.6 wt % (˜2.7 moles of H2O).
Moisture sorption/desorption data were collected on a VTI SGA-100 Vapor Sorption Analyzer. NaCl and PVP were used as calibration standards. Samples were not dried prior to analysis. Sorption and desorption data were collected over a range from 5% to 95% RH at 10% RH increments under a nitrogen purge. The equilibrium criterion used for analysis was less than 0.0100% weight change in 5 minutes with a maximum equilibration time of 3 hours. Data were not corrected for the initial moisture content of the samples.

[2] = in vivo; cited from earlier work

SMILES: NC(CO)(CO)CO.O=C(c1ccccc1)c1ccc2n1CC[C@H]2C(=O)O [R-ketorolac tromethamine salt]
- moisture after desorption to 5% RH (in words) ([1]; DVS desorption to 5% RH, small hysteresis): all the gained moisture is lost
- weight gain from 5-75% RH [1]: 1.2 wt %
- weight gain from 5-75% RH, moles of H2O [1]: ~0.25 moles of H2O
- weight gain above 75% RH [1]: ~12 wt %
- weight gain above 75% RH, moles of H2O [1]: ~3 moles of H2O
- weight loss upon equilibration from ambient RH to 5% RH ([1]; DVS): 0.4 wt %
- weight loss upon equilibration from ambient RH to 5% RH, equivalent moles of H2O ([1]; DVS): ~0.1 moles of H2O
- form change after DVS, based on XRPD [1]: form change is not observed

SMILES: CNCC(O)C(O)C(O)C(O)CO.O=C(c1ccccc1)c1ccc2n1CCC2C(=O)O (stereo not drawn) [R-ketorolac meglumine crystalline salt, R-ketorolac meglumine salt]
- weight retained upon desorption to 5% RH ([1]; DVS desorption to 5% RH): ~9.6 wt %
- weight retained upon desorption to 5% RH, moles of H2O ([1]; DVS desorption to 5% RH): ~2.7 moles of H2O
- weight gain from 5-75% RH [1]: 0.9 wt %
- weight gain from 5-75% RH, moles of H2O [1]: ~0.25 moles of H2O
- weight gain above 75% RH [1]: ~37 wt %
- weight gain above 75% RH, moles of H2O [1]: > 12 moles of H2O
- hygroscopicity above 75% RH ([1]; DVS, above 75% RH): highly hygroscopic
- weight loss upon equilibration from ambient RH to 5% RH ([1]; DVS): 0.1 wt %
- weight loss upon equilibration from ambient RH to 5% RH, equivalent moles of H2O ([1]; DVS): < 0.1 moles of H2O
- hygroscopicity below 75% RH ([1]; DVS, below 75% RH): limited hygroscopicity
- form change after DVS, based on XRPD [1]: form change is not observed

SMILES: O=C(c1ccccc1)c1ccc2n1CC[C@H]2C(=O)O [R-ketorolac]
- tolerability in rat studies [2]: much better tolerated than S-ketorolac

SMILES: O=C(c1ccccc1)c1ccc2n1CC[C@@H]2C(=O)O [S-ketorolac]
- tolerability in rat studies [2]: severe dose limiting toxicities
